Experimental data as given in ChEMBL document CHEMBL4476883, “Hydroxy formamide derivatives and their use” (2017).

Tests used:
[1] = molecular target: T1, Bone morphogenetic protein 1 (Homo sapiens, UniProt P13497); test: Inhibition of C-terminal FLAG-6x-His epitope tagged and N-terminal human RAGE signal sequence tagged human BMP1 (23 to 721 amino acids) expressed in CHO-E1A cells pre-incubated for 10 mins before promyostatin peptide substrate addition and measured after 60 mins using 0.5 nM BMP1 by FRET based assay; assay type: cell-based
T1 sequence (P13497 whole entry): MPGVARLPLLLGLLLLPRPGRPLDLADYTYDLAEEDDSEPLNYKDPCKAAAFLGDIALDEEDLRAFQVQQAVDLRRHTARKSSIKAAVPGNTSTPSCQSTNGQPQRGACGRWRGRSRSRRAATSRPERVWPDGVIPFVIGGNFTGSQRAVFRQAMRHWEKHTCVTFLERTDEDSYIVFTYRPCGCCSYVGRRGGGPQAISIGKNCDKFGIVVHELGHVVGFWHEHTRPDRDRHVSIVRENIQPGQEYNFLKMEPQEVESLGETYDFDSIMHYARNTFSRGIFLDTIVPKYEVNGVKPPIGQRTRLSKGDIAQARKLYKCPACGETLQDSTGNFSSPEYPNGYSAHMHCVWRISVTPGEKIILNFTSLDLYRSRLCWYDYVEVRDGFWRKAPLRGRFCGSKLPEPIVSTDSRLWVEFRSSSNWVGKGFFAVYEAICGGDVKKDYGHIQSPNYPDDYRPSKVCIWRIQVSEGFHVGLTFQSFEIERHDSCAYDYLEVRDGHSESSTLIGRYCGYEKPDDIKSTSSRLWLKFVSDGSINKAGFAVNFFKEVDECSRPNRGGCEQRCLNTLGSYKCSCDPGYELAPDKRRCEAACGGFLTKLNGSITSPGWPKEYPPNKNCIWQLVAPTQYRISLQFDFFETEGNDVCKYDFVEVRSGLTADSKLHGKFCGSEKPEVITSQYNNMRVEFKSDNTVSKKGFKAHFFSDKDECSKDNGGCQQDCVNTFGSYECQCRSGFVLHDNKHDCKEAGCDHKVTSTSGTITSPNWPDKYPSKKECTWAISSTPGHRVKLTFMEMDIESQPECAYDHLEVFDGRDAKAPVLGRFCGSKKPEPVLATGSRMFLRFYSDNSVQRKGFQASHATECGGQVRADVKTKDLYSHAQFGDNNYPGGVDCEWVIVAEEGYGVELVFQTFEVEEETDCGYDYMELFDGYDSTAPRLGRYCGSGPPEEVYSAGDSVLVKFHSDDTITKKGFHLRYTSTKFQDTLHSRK

[2] = molecular target: T1, Bone morphogenetic protein 1; test: Inhibition of C-terminal FLAG-6x-His epitope tagged and N-terminal human RAGE signal sequence tagged human BMP1 (23 to 721 amino acids) expressed in CHO-E1A cells pre-incubated for 10 mins before promyostatin peptide substrate addition and measured after 30 mins using 50 nM BMP1 by FRET based assay; assay type: cell-based
Tolloid-like protein 1 = Tolloid-like protein 1 (Homo sapiens, UniProt O43897, I156V/N221S/V284A); test: Inhibition of recombinant human TLL1 I156V/N221S/V284A mutant expressed in CHOE1A cells pre-incubated for 10 mins before promyostatin peptide substrate addition and measured after 60 mins by FRET based assay; assay type: cell-based
Tolloid-like protein 1, sequence (O43897 148-1013 I156V/N221S/V284A limits assumed): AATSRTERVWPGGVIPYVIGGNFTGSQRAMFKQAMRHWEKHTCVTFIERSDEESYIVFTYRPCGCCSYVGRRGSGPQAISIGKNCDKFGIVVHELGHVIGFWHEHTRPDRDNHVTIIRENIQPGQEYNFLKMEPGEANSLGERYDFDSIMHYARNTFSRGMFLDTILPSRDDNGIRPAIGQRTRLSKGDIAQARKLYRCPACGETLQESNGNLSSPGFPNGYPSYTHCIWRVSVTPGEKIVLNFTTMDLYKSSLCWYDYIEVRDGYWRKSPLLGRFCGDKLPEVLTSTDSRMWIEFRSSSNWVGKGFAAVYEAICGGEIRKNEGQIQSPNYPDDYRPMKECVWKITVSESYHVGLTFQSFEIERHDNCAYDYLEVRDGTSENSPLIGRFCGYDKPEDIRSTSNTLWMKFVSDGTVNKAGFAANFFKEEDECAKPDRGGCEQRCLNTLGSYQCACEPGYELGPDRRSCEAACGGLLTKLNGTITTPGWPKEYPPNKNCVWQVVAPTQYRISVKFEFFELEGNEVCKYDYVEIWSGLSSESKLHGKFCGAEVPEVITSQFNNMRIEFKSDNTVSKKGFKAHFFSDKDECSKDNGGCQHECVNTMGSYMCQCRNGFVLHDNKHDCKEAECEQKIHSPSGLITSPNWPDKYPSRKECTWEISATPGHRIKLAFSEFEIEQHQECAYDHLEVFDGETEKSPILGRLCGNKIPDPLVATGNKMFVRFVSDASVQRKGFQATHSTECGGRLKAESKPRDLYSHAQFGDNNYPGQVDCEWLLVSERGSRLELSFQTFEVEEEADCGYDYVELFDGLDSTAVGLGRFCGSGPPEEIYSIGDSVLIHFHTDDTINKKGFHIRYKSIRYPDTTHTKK

Tolloid-like protein 2 = molecular target: T2, Tolloid-like protein 2 (Homo sapiens, UniProt Q9Y6L7); test: Inhibition of C-terminal Avi-6x-His epitope tagged and N-terminal human RAGE signal sequence tagged recombinant human TLL2 (26 to 1015 amino acids) expressed in CHOE1A cells incubated for 60 mins with promyostatin peptide substrate by FRET based assay; assay type: cell-based
T2 sequence (Q9Y6L7 whole entry): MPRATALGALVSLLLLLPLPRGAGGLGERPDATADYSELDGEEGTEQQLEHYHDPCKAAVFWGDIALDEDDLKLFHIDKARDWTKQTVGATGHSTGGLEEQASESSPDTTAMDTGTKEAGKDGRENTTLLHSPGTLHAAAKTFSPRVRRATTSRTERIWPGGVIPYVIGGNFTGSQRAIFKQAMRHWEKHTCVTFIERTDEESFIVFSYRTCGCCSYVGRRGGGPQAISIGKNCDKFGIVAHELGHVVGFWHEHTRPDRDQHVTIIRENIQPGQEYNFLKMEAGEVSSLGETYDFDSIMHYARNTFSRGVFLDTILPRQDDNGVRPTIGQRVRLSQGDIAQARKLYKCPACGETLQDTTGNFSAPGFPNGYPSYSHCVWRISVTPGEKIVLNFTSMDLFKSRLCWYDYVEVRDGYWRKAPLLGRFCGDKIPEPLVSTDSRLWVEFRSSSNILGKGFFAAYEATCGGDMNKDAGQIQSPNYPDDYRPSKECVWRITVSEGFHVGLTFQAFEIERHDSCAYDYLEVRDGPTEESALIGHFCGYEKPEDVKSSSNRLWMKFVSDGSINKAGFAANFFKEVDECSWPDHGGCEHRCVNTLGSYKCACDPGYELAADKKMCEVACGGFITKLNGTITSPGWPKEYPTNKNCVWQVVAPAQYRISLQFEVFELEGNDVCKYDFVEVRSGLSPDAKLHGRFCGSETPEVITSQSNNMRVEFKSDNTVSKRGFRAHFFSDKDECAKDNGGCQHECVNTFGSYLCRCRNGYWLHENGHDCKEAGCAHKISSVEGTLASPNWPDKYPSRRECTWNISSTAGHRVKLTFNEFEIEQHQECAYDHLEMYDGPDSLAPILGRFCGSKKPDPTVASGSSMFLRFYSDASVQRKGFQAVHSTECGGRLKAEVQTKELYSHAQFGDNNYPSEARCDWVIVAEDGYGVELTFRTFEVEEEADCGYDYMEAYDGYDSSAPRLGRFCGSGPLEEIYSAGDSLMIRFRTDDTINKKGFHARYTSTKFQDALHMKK

[3] = Reduction in PICP levels in human cardiac fibroblasts incubated for 24 to 48 hrs by ELISA; assay type: functional

Structure (SMILES): CCCCC[C@@H](C(=O)NCNC(=O)c1cccc(-c2cc(OCC)cc(P(=O)(O)O)c2)n1)[C@@H](CC)N(O)C=O
- IC50 [1]: < 126 nM
- IC50 [2]: < 251 nM
- IC50 (Tolloid-like protein 1): < 398 nM
- IC50 (Tolloid-like protein 2): < 631 nM
- IC50 [3]: < 20000 nM

Structure (SMILES): CCCCC[C@H](CN(O)C=O)C(=O)NCNC(=O)c1cccc(-c2cc(OC)ccc2OC)c1
- IC50 [1]: < 126 nM
- IC50 [2]: < 251 nM
- IC50 (Tolloid-like protein 1): < 398 nM
- IC50 (Tolloid-like protein 2): < 631 nM
- IC50 [3]: < 20000 nM

Structure (SMILES): CCCCC[C@H](CN(O)C=O)C(=O)NCNC(=O)c1cccc(-c2ccc(OC(F)(F)F)cc2)n1
- IC50 [1]: < 126 nM
- IC50 [2]: < 251 nM
- IC50 (Tolloid-like protein 1): < 398 nM
- IC50 (Tolloid-like protein 2): < 631 nM
- IC50 [3]: < 20000 nM

Structure (SMILES): CCCCC[C@@H](C(=O)NCNC(=O)c1cccc(-c2ccc(C(=O)NCP(=O)(O)O)cc2)n1)[C@@H](CC)N(O)C=O
- IC50 [1]: < 126 nM
- IC50 [2]: < 251 nM
- IC50 (Tolloid-like protein 1): < 398 nM
- IC50 (Tolloid-like protein 2): < 631 nM
- IC50 [3]: < 20000 nM

Structure (SMILES): CCCCC[C@@H](C(=O)NCNC(=O)c1cccc(-c2ccc(C(C)(C)C(=O)O)cc2)n1)[C@@H](CC)N(O)C=O
- IC50 [1]: < 126 nM
- IC50 [2]: < 251 nM
- IC50 (Tolloid-like protein 1): < 398 nM
- IC50 (Tolloid-like protein 2): < 631 nM
- IC50 [3]: < 20000 nM

Structure (SMILES): CCCCC[C@H](CN(O)C=O)C(=O)NCNC(=O)c1cccc(-c2cccc(S(N)(=O)=O)c2)c1
- IC50 [1]: < 126 nM
- IC50 [2]: < 251 nM
- IC50 (Tolloid-like protein 1): < 398 nM
- IC50 (Tolloid-like protein 2): < 631 nM
- IC50 [3]: < 20000 nM

Structure (SMILES): CCCCC[C@@H](C(=O)NCNC(=O)c1cccc(-c2ccc(C(=O)O)cc2C)n1)[C@@H](CC)N(O)C=O
- IC50 [1]: < 126 nM
- IC50 [2]: < 251 nM
- IC50 (Tolloid-like protein 1): < 398 nM
- IC50 (Tolloid-like protein 2): < 631 nM
- IC50 [3]: < 20000 nM

Structure (SMILES): CCCCC[C@H](CN(O)C=O)C(=O)NCNC(=O)c1cccc(-c2ccc(N(C)C)cc2)c1
- IC50 [1]: < 126 nM
- IC50 [2]: < 251 nM
- IC50 (Tolloid-like protein 1): < 398 nM
- IC50 (Tolloid-like protein 2): < 631 nM
- IC50 [3]: < 20000 nM

Structure (SMILES): O=CN(O)C[C@@H](CC1CCCC1)C(=O)NCNC(=O)c1cccc(-c2ccccc2)c1
- IC50 [1]: < 126 nM
- IC50 [2]: < 251 nM
- IC50 (Tolloid-like protein 1): < 398 nM
- IC50 (Tolloid-like protein 2): < 631 nM
- IC50 [3]: < 20000 nM

Structure (SMILES): CCCCC[C@H](CN(O)C=O)C(=O)NCNC(=O)c1ccnc(-c2ccccc2)n1
- IC50 [1]: < 126 nM
- IC50 [2]: < 251 nM
- IC50 (Tolloid-like protein 1): < 398 nM
- IC50 (Tolloid-like protein 2): < 631 nM
- IC50 [3]: < 20000 nM

Structure (SMILES): CCCCC[C@H](CN(O)C=O)C(=O)NCNC(=O)c1cccc(Oc2ccc(OC)nc2)c1
- IC50 [1]: < 126 nM
- IC50 [2]: < 251 nM
- IC50 (Tolloid-like protein 1): < 398 nM
- IC50 (Tolloid-like protein 2): < 631 nM
- IC50 [3]: < 20000 nM

Structure (SMILES): CCCCC[C@@H](C(=O)NCNC(=O)c1cccc(-c2ccc(CC(=O)O)c(OCC)c2)n1)[C@@H](CC)N(O)C=O
- IC50 [1]: < 126 nM
- IC50 [2]: < 251 nM
- IC50 (Tolloid-like protein 1): < 398 nM
- IC50 (Tolloid-like protein 2): < 631 nM
- IC50 [3]: < 20000 nM

Structure (SMILES): CCCCC[C@@H](C(=O)NCNC(=O)c1cccc(-c2ccc(C(=O)N[C@@H](CCC(=O)O)C(=O)O)c(OCC)c2)n1)[C@@H](CC)N(O)C=O
- IC50 [1]: < 126 nM
- IC50 [2]: < 251 nM
- IC50 (Tolloid-like protein 1): < 398 nM
- IC50 (Tolloid-like protein 2): < 631 nM
- IC50 [3]: < 20000 nM

Structure (SMILES): CCCCC[C@@H](C(=O)NCNC(=O)c1cccc(-c2ccc(C(=O)NCP(=O)(O)O)c(OCC)c2)n1)[C@@H](CC)N(O)C=O
- IC50 [1]: < 126 nM
- IC50 [2]: < 251 nM
- IC50 (Tolloid-like protein 1): < 398 nM
- IC50 (Tolloid-like protein 2): < 631 nM
- IC50 [3]: < 20000 nM
